How the values were obtained:
human HRAS transgene = experiment: Duplex Sequencing detection of clonally expanded cancer driver mutations after urethane dosing; type: in vivo, mouse
Source text: (§1) In this example, the impact of urethane is examined in different mouse tissue types (lung, spleen, blood) in an FDA-accepted cancer-predisposed mouse model: Tg.rasH2 (Saitoh et al. Oncogene 1990. PMID 2202951). This mouse contains ˜3 tandem copies of human HRAS with an activating enhancer mutation to boost expression on one hemizygous allele. These mice are predisposed to splenic angiosarcomas and lung adenocarcinomas, and are routinely used for 6 month carcinogenicity studies to substitute for 2 year wild-type animal studies. Tumors found in the mice have usually acquired activating mutations in one copy of the human HRAS protooncogene. Thus, the human HRAS transgene serves a model target cancer driver gene in these animals. Sequence analysis and mutation detection was performed for 4 native mouse genes (Rho, Hp, Ctnnb1, Polr1c), along with the native mouse Hras, Kras, Nras and human HRAS transgene.
(§2) In this example, Tg.rasH2 mice (n=5/group) were dosed with vehicle or a model mutation-inducing agent (e.g., a carcinogenic dose of urethane) (day 1,3,5) and sacrificed on day 29 for mutation detection by Duplex Sequencing in target tissues (lung, spleen) and whole blood. Target endogenous genes (Rho, Hp, Ctnnb1, Polr1c) and the native mouse Hras and human HRAS (trans)genes were also sequenced.

Tg.rasH2 mice = experiment: Duplex Sequencing of mutation induction and mutation spectrum in lung, spleen and blood; type: in vivo, mouse
Source text: as §1, §2

treated spleen samples with mutations in human HRAS codon 61 (human HRAS transgene; Tg.rasH2 mice, day 29, spleen, one at the same position, one on an adjoining base pair): two
urethane treated lung samples with the human HRAS codon 61 T>A mutation (human HRAS transgene; Tg.rasH2 mice, n=5/group, day 29, lung): 4/5
urethane-treated splenic samples with T>A transversion at the human oncogenic HRAS codon 61 hotspot (human HRAS transgene; Tg.rasH2 mice, n=5/group, spleen): 1/5
variant allele frequencies of the codon 61 mutation in exon 3 of human HRAS (human HRAS transgene; urethane treated lung samples, Tg.rasH2 mice, day 29, T→A transversions in the context CTG): 0.1%-1.8
cells encompassed by the highest allele fraction clone (human HRAS transgene; within the 29 days of the study): more than 90,000 cells
mutation induction in peripheral blood (Tg.rasH2 mice; compared with spleen): closely mirrored that seen in the spleen
SMILES: CCOC(N)=O [urethane]
doubling time of the selected clone cells (human HRAS transgene; by calculation, 29 days, assuming no cell death): ~1.8 days
triplet mutation spectrum (Tg.rasH2 mice; distinguishable from the vehicle control): strong propensity for T→A and T→C mutations within the context of “NTG”
tissue-specific variations in the extent of mutation induction (Tg.rasH2 mice; lung, spleen, blood): lung being observed to be more mutation prone than spleen and blood
